{"source": "patent US20230174656A1", "about": "“T[…] REMDESIVIR COMBINATION THERAPY FOR COVID-19 PNEUMONIA” (priority 2020, published 2023)", "origin": "cited, not measured here", "key": {"COVID-19 pneumonia": {"test_system": "COVID-19 pneumonia", "conditions": "cited from earlier work"}, "[1]": {"conditions": "cited from earlier work; for geometric mean maximum concentration of TCZ: patients with CAR T cell induced CRS, % CV in brackets"}, "[2]": {"test_system": "CAR T cell-induced severe or life-threatening CRS", "conditions": "cited from earlier work"}}, "note": "Read-outs that look alike come from different tables or passages of the source.", "data": [{"substance": "TCZ: recombinant humanized monoclonal IgG1κ antibody that binds to human interleukin-6 receptor (IL-6R); light and heavy chains SEQ ID NOs. 1 and 2", "values": [{"measurement": "patients in whom percentage of lymphocytes in peripheral blood returned to normal", "setting": "COVID-19 pneumonia; 10/19, fifth day after treatment", "result": 52.6, "unit": "%"}, {"measurement": "patients who had lowered their oxygen intake", "setting": "COVID-19 pneumonia; 15 of 20 patients", "result": 75.0, "unit": "%"}, {"measurement": "patients in whom abnormally elevated CRP decreased significantly", "setting": "COVID-19 pneumonia; 16/19", "result": 84.2, "unit": "%"}, {"measurement": "adverse drug reactions and subsequent pulmonary infections", "setting": "COVID-19 pneumonia; 21 treated patients", "result": "No adverse drug reactions and no subsequent pulmonary infections were reported"}, {"measurement": "deaths", "setting": "COVID-19 pneumonia; 21 treated patients", "result": "no deaths among the 21 treated patients"}, {"measurement": "fever after TCZ treatment", "setting": "COVID-19 pneumonia; TCZ IV 400 mg plus standard of care", "result": "fever returned to normal"}, {"measurement": "patients needing no oxygen therapy", "setting": "COVID-19 pneumonia; after TCZ treatment", "result": "one patient needed no oxygen therapy"}, {"measurement": "patients with significant remission of opacities in both lungs on CT scans", "setting": "COVID-19 pneumonia; after treatment", "result": 90.5, "unit": "%"}, {"measurement": "patients discharged at the time of the report", "setting": "COVID-19 pneumonia; nineteen patients, including two critical patients", "result": 90.5, "unit": "%"}, {"measurement": "geometric mean maximum concentration of TCZ", "setting": "[1]; after the first infusion", "result": 99.5, "unit": "µg/mL"}, {"measurement": "geometric mean maximum concentration of TCZ", "setting": "[1]; after the second infusion", "result": 160.7, "unit": "µg/mL"}, {"measurement": "clearance of TCZ (PK modeling analysis)", "setting": "[1]; patients with CRS versus healthy volunteers and other patient populations", "result": "faster clearance of TCZ than healthy volunteers and other patient populations"}, {"measurement": "patients achieving a response (afebrile and off vasopressors for at least 24 hours) within 14 days of the first dose of TCZ", "setting": "[2]; CTL019 series, 45 patients, maximum up to two doses", "result": 69, "unit": "%"}, {"measurement": "median time from the first dose to response", "setting": "[2]; CTL019 series", "result": 4, "unit": "days"}, {"measurement": "patients achieving a response", "setting": "[2]; axicabtagene ciloleucel series, 15 patients", "result": 53, "unit": "%"}, {"measurement": "median time to response", "setting": "[2]; axicabtagene ciloleucel series", "result": 4.5, "unit": "days"}, {"measurement": "adverse reactions attributable to TCZ", "setting": "[2]; patients with CRS after CAR T-cell therapy", "result": "no reports of adverse reactions attributable to TCZ"}]}]}
